Source: PMC6701825, “Antiproliferative and Antimigratory Effects of a Novel YAP–TEAD Interaction Inhibitor Identified Using in Silico Molecular Docking” (Journal of Medicinal Chemistry, 2019)

How the values were obtained:
Format in all cases: cell-based
CCN1 protein = assay: Western blotting of CCN1 protein in VSMC lysates; details: indicated concentrations, 16 hr
Experimental: Figure 9 Compound 3.1 inhibits TEAD target gene expression, cell proliferation, and cell migration in RaVSMCs. RaVSMCs stably transduced with TEAD-NLUC (A) or transiently transfected with CCN1-LUC or CTGF-LUC were treated with the indicated concentrations of compound 3.1 for 6 hr. Cell conditioned media (A) or cell lysates (B−C) were assayed for nanoluciferase or fire-fly luciferase activity, respectively. VSMC were treated with 60 μM compound 3.1 for 6 h (n = 3). Total RNA was analyzed for mRNA levels of TEAD-target genes (D) or constitutive housekeeping genes (E) by qRT-PCR. VSMC were treated with indicated concentrations of compound 3.1 for 16 hr (n = 4). Total cell lysates were analyzed for CCN1 protein expression by Western blotting (F). RaVSMCs (G) or HuVSMC (H) were treated with indicated concentrations of compound 3.1 for 18 h followed by labeling in 10 μM EdU for a further 6 h (n = 4). RaVSMCs (I) or HuVSMC (J) were treated with indicated concentrations of compound 3.1 and cell migration quantified using IncuCyte real time migration assay (n = 4).
Extracted samples were separated by 4–12% SDS-polyacrylamide gel electrophoresis (Bio-Rad) and transferred to poly(vinylidene difluoride) membranes (GE Healthcare). Membranes were blocked in 5% low-fat milk in 10 mM Tris pH 7.6, 150 mM NaCl, 0.2% Tween. […]

TEAD2 = molecular target: T1, TEAD2 (Homo sapiens, UniProt Q15562); assay: GAL4-TEAD2 fusion / 5xGAL4-secNLUC reporter in HeLa cells; details: 100 μM, 6 h
T1 construct: #18881 (FLAG-YAP); host or cells: HeLa
Source text: (§1) TEAD proteins (TEAD1–4) display a high degree of sequence conservation in residues that create the hydrophobic pocket that is essential for YAP binding.[51] YAP proteins also display a high degree of conservation in residues that interact with this pocket.[51] We therefore tested whether CPD3.1 was able to inhibit YAP-induced activity of TEAD1, TEAD2, TEAD3, and TEAD4. To quantify the effect of CPD3.1 on the activity of each individual TEAD paralog, while excluding interference from endogenously expressed TEAD1–4 proteins, we expressed each TEAD paralog (TEAD1–4) fused to the yeast GAL4 DNA-binding domain. Cells were transfected with the GAL4–TEAD expression vector together with a secreted nanoluciferase reporter gene vector under control of a promoter containing five GAL4 DNA-binding elements. This system allows us to study the effect of CPD3.1 on the activity of each individual TEAD protein in isolation, without interference from endogenously expressed transcription factors. In addition, the cells were co-transfected with a YAP expression vector to activate the GAL4–TEAD fusion-dependent transcription (see Supplement Figure 9). Basal activities of TEAD1, TEAD2, TEAD3, and TEAD4 were inhibited by CPD3.1 (Figure 7A–D). […]
Figure 7 Compound 3.1 inhibits TEAD1, TEAD2, TEAD3, and TEAD4 activities. […] Secreted nano-luciferase activity was quantified in the conditioned media. […]

[1] = test system: TEAD-independent GAL4 reporter vector; assay: TEAD-independent reporter vector basal activity (Supplement Figure 10A); details: 6 hours
Source text: as §1, with “7A–D). This likely reflects the inhibition of TEAD activity driven by endogenous expression of YAP.” for “7A–D).”

T1 sequence (Q15562 whole entry, the tested form may be a part): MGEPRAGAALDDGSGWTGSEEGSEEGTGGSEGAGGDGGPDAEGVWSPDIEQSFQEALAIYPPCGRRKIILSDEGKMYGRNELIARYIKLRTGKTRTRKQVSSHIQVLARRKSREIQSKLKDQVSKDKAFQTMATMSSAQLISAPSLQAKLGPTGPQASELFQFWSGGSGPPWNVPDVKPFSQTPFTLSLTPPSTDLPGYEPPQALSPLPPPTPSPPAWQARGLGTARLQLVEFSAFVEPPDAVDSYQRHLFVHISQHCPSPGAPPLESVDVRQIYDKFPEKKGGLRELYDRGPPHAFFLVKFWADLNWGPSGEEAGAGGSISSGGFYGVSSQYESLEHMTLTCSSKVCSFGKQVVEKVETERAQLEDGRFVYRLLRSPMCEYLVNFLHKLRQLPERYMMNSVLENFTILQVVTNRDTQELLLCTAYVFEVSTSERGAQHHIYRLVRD

SMILES: Cc1ccc2c(c1)c1c3n2CCNC3CCC1 (stereo not shown) [CPD3.1]
- CCN1 protein levels (Western blot) (CCN1 protein): inhibited the expression of CCN1 protein levels
- basal activity of GAL4-TEAD2 (TEAD2): inhibited
- YAP-stimulated activity of GAL4-TEAD2 (TEAD2; YAP overexpression): significantly inhibited
- basal activity of a TEAD-independent GAL4 reporter vector [1]: did not inhibit the basal activity
